In patent US20260151516A1, “NEW PET TRACER FOR IMAGING OF THE FUNCTIONAL HEPATIC RESERVE” (Medizinische Universität Innsbruck, priority 2022, published 2026):

Tests used:
[1] = Partition coefficient (log D), n-Octanol/PBS; format: physicochemical
Description: The vials were vortexed for 5 min at 1,500 rpm and then centrifuged for 5 min at 20,000 rcf (Eppendorf Centrifuge 5424).

[2] = Biodistribution studies incl. blocking experiments; format: in vivo; settings: healthy BALB/c mice
Description: For biodistribution studies 6 week old female BALB/c mice (n=3) were injected with 0.1 nmol (100 μL, approx. 1 MBq) of labelled compound via the lateral tail vein and sacrificed after 10, 30, or 60 min by cervical dislocation. The mice were dissected, blood and organs (spleen, pancreas, stomach, intestine, liver, kidney, heart, lung, muscle, and bone) were weighed, and their activity measured in a γ-counter. For blocking experiments, mice were co-injected with 100 μL of a 277 mM Galactose/PBS solution. In case of [^68Ga]Ga-TRAP-GalNAc a 277 mM N-Acetylgalactose solution was used.

human serum = test: Protein binding in fresh human serum (Sephadex MicroSpin G-50 columns); format: in vitro ADME; settings: 37° C., 30 min
Description: Protein binding was determined for different time points (2 min, 30 min, 60 min, 120 min) in triplicates using Sephadex MicroSpin G-50 columns (GE-Healthcare, Chicago, Illinois, USA). The columns were spun initially at 20,000 rcf for 1 min to remove the storage buffer. Then approx. 5 MBq of radioligand was added to 1 mL of fresh human serum and incubated at 37° C. At each given timepoint 25 μL of the mixture was loaded on to the column, which was then spun at 20,000 rcf for 1 min. The activity content on the column (free radioligand) and in the filtrate (protein bound fraction) was quantified in a γ-counter.

[3] = Ligand stability in human blood serum (radio-HPLC); format: in vitro ADME; settings: 37° C., 120 min
Description: Ligand stability in human blood serum (n=2) and PBS (n=1) was determined for different time points (2 min, 30 min, 60 min, 120 min). Therefore, approx. 5 MBq of radioligand was added to 1 mL of fresh human serum or PBS and incubated at 37° C. At each given time point 100 μL of the mixture were transferred to a 1.5 mL Eppendorf tube containing 100 μL of acetonitrile. The vial was vortexed and centrifuged for 2 min at 14,000 rpm before 100 μL of the supernatant were diluted with 200 μL of water and injected into analytical radio-HPLC. The PBS solution was directly injected into the radio-HPLC. Ligand stability was determined by integrating the areas of the signals in the radio chromatogram in relation to the signal of the intact ligand.

[4] = 30 min p.i., blocking with 277 mM N-Acetylgalactose

## O=C(CCP(=O)([O-])CN1CCN(CP(=O)([O-])CCC(=O)NCc2cn(CCOCCOCCO[C@@H]3O[C@H](CO)[C@@H](O)[C@H](O)[C@H]3O)nn2)CCN(CP(=O)([O-])CCC(=O)NCc2cn(CCOCCOCCO[C@@H]3O[C@H](CO)[C@@H](O)[C@H](O)[C@H]3O)nn2)CC1)NCc1cn(CCOCCOCCO[C@@H]2O[C@H](CO)[C@@H](O)[C@H](O)[C@H]2O)nn1.[68Ga+3] [[^68Ga]Ga-TRAP-Gluco, reference compound]
[1]
  logD: −3.8 ± 0.08
[2]; 10 min p.i.
  Biodistribution Blood: 4.53 ± 0.52 % ID/g
  Biodistribution Femur: 0.86 ± 0.10 % ID/g
  Biodistribution Intestine: 1.10 ± 0.12 % ID/g
  Biodistribution Kidneys: 10.20 ± 1.23 % ID/g
  Biodistribution Liver: 1.06 ± 0.07 % ID/g
  Biodistribution Lung: 2.84 ± 0.13 % ID/g
  Biodistribution Muscle: 0.99 ± 0.10 % ID/g
  Biodistribution Pancreas: 1.03 ± 0.08 % ID/g
  Biodistribution Spleen: 0.94 ± 0.03 % ID/g
  Biodistribution Stomach: 1.59 ± 0.44 % ID/g
[2]; 30 min p.i.
  Biodistribution Blood: 1.40 ± 0.50 % ID/g
  Biodistribution Femur: 0.15 ± 0.14 % ID/g
  Biodistribution Heart: 1.07 ± 0.34 % ID/g
  Biodistribution Intestine: 0.57 ± 0.20 % ID/g
  Biodistribution Kidneys: 3.95 ± 1.12 % ID/g
  Biodistribution Liver: 0.51 ± 0.17 % ID/g
  Biodistribution Lung: 0.32 ± 0.10 % ID/g
  Biodistribution Muscle: 0.35 ± 0.12 % ID/g
  Biodistribution Pancreas: 0.47 ± 0.18 % ID/g
  Biodistribution Spleen: 0.41 ± 0.13 % ID/g
  Biodistribution Stomach: 0.61 ± 0.19 % ID/g
[2]; 60 min p.i.
  Biodistribution Blood: 0.16 ± 0.06 % ID/g
  Biodistribution Femur: 0.08 ± 0.03 % ID/g
  Biodistribution Heart: 0.08 ± 0.02 % ID/g
  Biodistribution Intestine: 0.14 ± 0.05 % ID/g
  Biodistribution Kidneys: 1.87 ± 0.33 % ID/g
  Biodistribution Liver: 0.15 ± 0.02 % ID/g
  Biodistribution Lung: 0.31 ± 0.03 % ID/g
  Biodistribution Muscle: 0.05 ± 0.01 % ID/g
  Biodistribution Pancreas: 0.09 ± 0.03 % ID/g
  Biodistribution Spleen: 0.11 ± 0.01 % ID/g
  Biodistribution Stomach: 0.09 ± 0.03 % ID/g
Human serum
  Protein binding (%): 3.3 ± 2.0%

## CC(=O)N[C@H]1[C@H](OCCOCCOCCn2cc(CNC(=O)CCP(=O)([O-])CN3CCN(CP(=O)([O-])CCC(=O)NCc4cn(CCOCCOCCO[C@@H]5O[C@H](CO)[C@H](O)[C@H](O)[C@H]5NC(C)=O)nn4)CCN(CP(=O)([O-])CCC(=O)NCc4cn(CCOCCOCCO[C@@H]5O[C@H](CO)[C@H](O)[C@H](O)[C@H]5NC(C)=O)nn4)CC3)nn2)O[C@H](CO)[C@H](O)[C@@H]1O.[68Ga+3] [[^68Ga]Ga-TRAP-GalNAc]
[1]
  logD: −4.2±0.08
[2]
  Liver uptake compared with [^99mTc]Tc-GSA: comparable
[2]; 10 min p.i.
  Biodistribution Blood: 0.64 ± 0.04 % ID/g
  Biodistribution Femur: 0.27 ± 0.04 % ID/g
  Biodistribution Heart: 0.69 ± 0.12 % ID/g
  Biodistribution Intestine: 0.63 ± 0.06 % ID/g
  Biodistribution Kidneys: 1.43 ± 0.10 % ID/g
  Biodistribution Liver: 69.1 ± 4.18 % ID/g
  Biodistribution Lung: 0.92 ± 0.11 % ID/g
  Biodistribution Muscle: 0.55 ± 0.03 % ID/g
  Biodistribution Pancreas: 0.92 ± 0.17 % ID/g
  Biodistribution Spleen: 0.24 ± 0.05 % ID/g
  Biodistribution Stomach: 0.86 ± 0.15 % ID/g
[2]; 30 min p.i.
  Biodistribution Blood: 0.57 ± 0.09 % ID/g
  Biodistribution Femur: 0.47 ± 0.12 % ID/g
  Biodistribution Heart: 0.73 ± 0.02 % ID/g
  Biodistribution Intestine: 4.16 ± 0.35 % ID/g
  Biodistribution Kidneys: 1.68 ± 0.30 % ID/g
  Biodistribution Liver: 63.88 ± 2.23 % ID/g
  Biodistribution Lung: 1.02 ± 0.06 % ID/g
  Biodistribution Muscle: 0.74 ± 0.08 % ID/g
  Biodistribution Pancreas: 1.50 ± 0.49 % ID/g
  Biodistribution Spleen: 0.20 ± 0.02 % ID/g
  Biodistribution Stomach: 1.60 ± 0.56 % ID/g
[2]; [4]
  Biodistribution Blood: 0.80 ± 0.04 % ID/g
  Biodistribution Femur: 0.32 ± 0.12 % ID/g
  Biodistribution Heart: 0.31 ± 0.02 % ID/g
  Biodistribution Intestine: 0.71 ± 0.06 % ID/g
  Biodistribution Kidneys: 2.86 ± 0.21 % ID/g
  Biodistribution Liver: 10.98 ± 0.44 % ID/g
  Biodistribution Lung: 0.73 ± 0.02 % ID/g
  Biodistribution Muscle: 0.28 ± 0.05 % ID/g
  Biodistribution Pancreas: 0.39 ± 0.04 % ID/g
  Biodistribution Spleen: 0.24 ± 0.01 % ID/g
  Biodistribution Stomach: 0.53 ± 0.06 % ID/g
[2]; 60 min p.i.
  Biodistribution Blood: 0.23 ± 0.02 % ID/g
  Biodistribution Femur: 0.49 ± 0.11 % ID/g
  Biodistribution Heart: 0.82 ± 0.27 % ID/g
  Biodistribution Intestine: 4.53 ± 0.35 % ID/g
  Biodistribution Kidneys: 0.79 ± 0.07 % ID/g
  Biodistribution Liver: 54.20 ± 7.95 % ID/g
  Biodistribution Lung: 0.71 ± 0.10 % ID/g
  Biodistribution Muscle: 0.57 ± 0.01 % ID/g
  Biodistribution Pancreas: 0.76 ± 0.11 % ID/g
  Biodistribution Spleen: 0.17 ± 0.05 % ID/g
  Biodistribution Stomach: 0.54 ± 0.02 % ID/g
[3]
  Serum stability (% of intact ligand): high serum stability
[3]; listed as [^68Ga]Ga-TRAP-GalNAC
  Serum stability (% of intact ligand): 99.7 ± 0.1%
Human serum
  Protein binding (%): 24.3 ± 5.2%
